Experimental data from patent publication US20180037923A1, “SELECTIVE DETECTION OF LACTIC ACID AND/OR ACETIC ACID BACTERIA OR OF FUNGI” (priority 2015, published 2018).

Key:
[1] = tested on: lactic acid bacteria and acetic acid bacteria; assay: Bactericidal action on the bacterial flora (conclusion from agar plate counts); format: cell-based; conditions: for Bactericidal action on lactic acid and acetic acid flora: bactericide = reduction by at least three decimal logarithms of CFU/ml
Source text: (§1) The word “bactericide” refers to a treatment having the effect of reducing a bacterial population by at least three decimal logarithms of colony forming units/ml on an agar plate count of a sample after treatment.
(§2) The toxicity results on yeasts and on bacteria are presented in the table below displaying the duration of exposure of the fungal flora to molecule A1 and the associated fluorescence measurement: yeasts lysis after exposure to the antifungal was confirmed by microscopic examination and methylene blue staining.
(§3) The toxicity results on yeasts and on bacteria are presented in the table below displaying the duration of exposure of the fungal flora to the molecule A2 and are obtained by enumeration on MRS agar media.

Dekkera anomala IFBM = assay: Agar plate count after contact with antifungal; format: cell-based
Source text: as §1, §2
(§4) The words “contact time” refer to below, the time of exposure of the microorganisms to the fungicidal product, here molecule A1.
(§5) Below: “No CFU” is the abbreviation for “No Colony forming unit on agar plate count”.
as §3

[2] = tested on: Lactobacillus paracasei IFBM; assay: Agar plate count after contact with antifungal; format: cell-based; conditions: count at contact time 0 h 1.4.10^7 CFU/mL
Source text: as §1, §2, §4, §5, §3

[3] = tested on: Lactobacillus lindneri DSM 20690; assay: Agar plate count after contact with antifungal; format: cell-based
Source text: as §1, §2, §4, §5, §3

[4] = tested on: Lactobacillus brevis IFBM; assay: Agar plate count after contact with antifungal; format: cell-based; conditions: count at contact time 0 h 7.10^5 CFU/mL
Source text: as §1, §2, §4, §5, §3

[5] = tested on: Oenococcus oeni DSM 20252; assay: Agar plate count after contact with antifungal; format: cell-based
Source text: as §1, §2, §4, §5, §3

[6] = tested on: Lactobacillus parabuchneri DSM 5708; assay: Agar plate count after contact with antifungal; format: cell-based; conditions: count at contact time 0 h 1.4.10^6 CFU/mL
Source text: as §1, §2, §4, §5, §3

[7] = tested on: Brettanomyces bruxellensis Wyeast labs; assay: Agar plate count after contact with antifungal; format: cell-based
Source text: as §1, §2, §4, §5, §3

Pedicoccus damnosus IFBM = assay: Agar plate count after contact with antifungal; format: cell-based
Source text: as §1, §2, §4, §5, §3

[8] = tested on: Acetobacter aceti DSM 3508; assay: Agar plate count after contact with antifungal; format: cell-based; conditions: count at contact time 0 h 2.9.10^7 CFU/mL
Source text: as §1, §2, §4, §5, §3

[9] = tested on: Zyggosaccharomyces bailii; assay: Agar plate count after contact with antifungal; format: cell-based; conditions: 400 mg/L
Source text: as §1, §2, §4, §5, §3

Sacch. Diastaticus IFBM = assay: Agar plate count after contact with antifungal; format: cell-based, Saccharomyces diastaticus
Source text: as §1, §2, §4, §5, §3

G. oxydans DSM 7145 = assay: Agar plate count after contact with antifungal; format: cell-based, Gluconobacter oxydans
Source text: as §1, §2, §4, §5, §3

[10] = tested on: Sacch. Cerevisae DSM 70449; assay: Agar plate count after contact with antifungal; format: cell-based, Saccharomyces cerevisae; conditions: for Agar plate count contact time 4 h: 400 mg/L
Source text: as §1, §2, §4, §5, §3

[11] = tested on: Sacch. Cerevisae Saflager S23; assay: Agar plate count after contact with antifungal; format: cell-based, Saccharomyces cerevisae; conditions: 400 mg/L
Source text: as §1, §2, §4, §5, §3

[12] = tested on: yeast populations versus lactic acid and acetic acid bacteria; assay: Concentration threshold for being antifungal while non-bactericidal; format: cell-based; conditions: estimated
Procedure: It is estimated that for the molecule A1 the concentration threshold allowing to obtain the effect of the invention of being non-bactericidal for the lactic acid and acetic acid bacteria while being antifungal for the yeast populations is comprised within 50 mg/l or 50 mg/l and 100 mg/l.
In order to determine whether a particular molecule is suitable for the invention, a person skilled in the art may constitute a first list of antifungal products and a second list of non-bactericidal products for bacteria and select the products appearing in the first and second list for which the fungicidal activity intervenes prior to the bactericidal activity. However, an experimental verification of the fungicidal activity will be necessary to determine the minimum antifungal concentration per mg/L or in microgram per milliliter depending on the targeted fungal flora.

[13] = 200 mg/L, count at contact time 0 h 6.10^6 CFU/mL
[14] = 400 mg/L, count at contact time 0 h 6.10^5 CFU/mL
[15] = 200 mg/L, count at contact time 0 h 4.10^9 CFU/mL
[16] = 400 mg/L, count at contact time 0 h 4.10^7 CFU/mL
[17] = 200 mg/L, count at contact time 0 h 7.2.10^5 CFU/mL
[18] = 400 mg/L, count at contact time 0 h 1.1.10^5 CFU/mL
[19] = 200 mg/L, count at contact time 0 h 8.10^8 CFU/mL
[20] = 400 mg/L, count at contact time 0 h 8.10^7 CFU/mL
[21] = count at contact time 0 h 2.10^5 CFU/mL

CCC(C)(C)c1ccc(CC(C)CN2C[C@@H](C)O[C@@H](C)C2)cc1 (some centres unmarked) [Molecule A2, Amorolfine]
Bactericidal action on lactic acid and acetic acid flora ([1]; doses of 200 mg/liter): neither bactericidal for the lactic acid flora nor bactericidal for the acetic acid flora | Bactericidal action on lactic acid and acetic acid flora ([1]; doses of 400 mg/liter): neither bactericidal for the lactic acid flora nor bactericidal for the acetic acid flora | Agar plate count contact time 4 h (Dekkera anomala IFBM; 400 mg/L, count at contact time 0 h 5.10^3 CFU/mL): No CFU | Agar plate count contact time 4 h ([2]; 200 mg/L): 5.10^7 CFU/mL | Agar plate count contact time 4 h ([2]; 400 mg/L): 4.10^7 CFU/mL | Agar plate count contact time 4 h [3, 13]: 1.10^6 CFU/mL | Agar plate count contact time 4 h [3, 14]: 5.10^5 CFU/mL | Agar plate count contact time 4 h ([4]; 200 mg/L): 1.10^6 CFU/mL | Agar plate count contact time 4 h ([4]; 400 mg/L): 8.10^5 CFU/mL | Agar plate count contact time 4 h [5, 15]: 6.10^9 CFU/mL | Agar plate count contact time 4 h [5, 16]: 5.10^7 CFU/mL | Agar plate count contact time 4 h ([6]; 200 mg/L): 5.10^5 CFU/mL | Agar plate count contact time 4 h ([6]; 400 mg/L): 3.10^4 CFU/mL | Agar plate count contact time 4 h [7, 13]: No CFU | Agar plate count contact time 4 h ([7]; 400 mg/L, count at contact time 0 h 1.8.10^6 CFU/mL): No CFU | Agar plate count contact time 4 h (Pedicoccus damnosus IFBM; [17]): 1.5.10^5 CFU/mL | Agar plate count contact time 4 h (Pedicoccus damnosus IFBM; [18]): 1.10^4 CFU/mL | Agar plate count contact time 4 h ([8]; 200 mg/L): 6.10^6 CFU/mL | Agar plate count contact time 4 h ([8]; 400 mg/L): 9.10^6 CFU/mL | Agar plate count contact time 4 h ([9]; count at contact time 0 h 2.2.10^6 CFU/mL): No CFU | Agar plate count contact time 4 h (Sacch. Diastaticus IFBM; 400 mg/L, count at contact time 0 h 2.10^6 CFU/mL): No CFU | Agar plate count contact time 4 h (G. oxydans DSM 7145; [19]): 1.10^9 CFU/mL | Agar plate count contact time 4 h (G. oxydans DSM 7145; [20]): 9.10^7 CFU/mL | Agar plate count contact time 4 h ([10]; count at contact time 0 h 5.8.10^5 CFU/mL): No CFU | Agar plate count contact time 4 h ([11]; count at contact time 0 h 3.2.10^5 CFU/mL): No CFU

C[C@@H](c1ncncc1F)[C@](O)(Cn1cncn1)c1ccc(F)cc1F [Molecule A3, voriconazole]
Bactericidal action on lactic acid and acetic acid flora ([1]; doses of 200 mg/liter): neither bactericidal for the lactic acid flora nor bactericidal for the acetic acid flora | Bactericidal action on lactic acid and acetic acid flora ([1]; doses of 400 mg/liter): neither bactericidal for the lactic acid flora nor bactericidal for the acetic acid flora | Agar plate count contact time 18 h (Dekkera anomala IFBM; 400 mg/L, count at contact time 0 h 7.10^5 CFU/mL): No CFU | Agar plate count contact time 18 h ([2]; 200 mg/L): 5.10^7 CFU/mL | Agar plate count contact time 18 h ([2]; 400 mg/L): 2.10^7 CFU/mL | Agar plate count contact time 18 h [3, 13]: 1.10^6 CFU/mL | Agar plate count contact time 18 h [3, 14]: 7.10^4 CFU/mL | Agar plate count contact time 18 h ([4]; 200 mg/L): 1.10^6 CFU/mL | Agar plate count contact time 18 h ([4]; 400 mg/L): 1.10^6 CFU/mL | Agar plate count contact time 18 h [5, 15]: 6.10^9 CFU/mL | Agar plate count contact time 18 h [5, 16]: 1.10^8 CFU/mL | Agar plate count contact time 18 h ([6]; 200 mg/L): 5.10^5 CFU/mL | Agar plate count contact time 18 h ([6]; 400 mg/L): 6.10^5 CFU/mL | Agar plate count contact time 18 h [7, 13]: 9.10^1 CFU/mL | Agar plate count contact time 18 h ([7]; 400 mg/L, count at contact time 0 h 8.10^4 CFU/mL): No CFU | Agar plate count contact time 18 h (Pedicoccus damnosus IFBM; [17]): 1.5.10^5 CFU/mL | Agar plate count contact time 18 h (Pedicoccus damnosus IFBM; [18]): 2.10^4 CFU/mL | Agar plate count contact time 18 h ([8]; 200 mg/L): 6.10^6 CFU/mL | Agar plate count contact time 18 h ([8]; 400 mg/L): 4.10^7 CFU/mL | Agar plate count contact time 18 h (Sacch. Diastaticus IFBM; 400 mg/L, count at contact time 0 h 1.10^4 CFU/mL): No CFU | Agar plate count contact time 18 h (G. oxydans DSM 7145; [19]): 1.10^9 CFU/mL | Agar plate count contact time 18 h (G. oxydans DSM 7145; [20]): 1.10^8 CFU/mL

C[C@@H]1C[C@@H]([C@H](O)CC2CC(=O)NC(=O)C2)C(=O)[C@@H](C)C1 [Molecule A4, cycloheximide]
Effect on bacteria cell integrity ([1]; doses of 400 mg/liter or more): preserves bacteria cell integrity | Agar plate count contact time 18 h (Dekkera anomala IFBM; Test No 2: 400 mg/L, count at contact time 0 h 1.10^5 CFU/mL): 1.2.10^1 CFU/mL | Agar plate count contact time 18 h ([2]; 400 mg/L): 3.10^7 CFU/mL | Agar plate count contact time 18 h [3, 14]: 1.10^5 CFU/mL | Agar plate count contact time 18 h ([4]; 400 mg/L): 2.10^6 CFU/mL | Agar plate count contact time 18 h [5, 16]: 1.10^8 CFU/mL | Agar plate count contact time 18 h ([6]; 400 mg/L): 6.10^6 CFU/mL | Agar plate count contact time 18 h ([7]; Test No 2: 400 mg/L, count at contact time 0 h 7.3.10^5 CFU/mL): No CFU | Agar plate count contact time 18 h (Pedicoccus damnosus IFBM; [18]): 4.10^4 CFU/mL | Agar plate count contact time 18 h ([8]; 400 mg/L): 9.10^7 CFU/mL | Concentration threshold allowing to obtain the effect of the invention [12]: greater than 300 mg/l | Agar plate count contact time 18 h (Sacch. Diastaticus IFBM; Test No 2: 400 mg/L, count at contact time 0 h 4.10^4 CFU/mL): No CFU | Agar plate count contact time 18 h (G. oxydans DSM 7145; [20]): 1.10^8 CFU/mL | Agar plate count contact time 18 h ([10]; Test No 2: 400 mg/L, count at contact time 0 h 5.10^4 CFU/mL): No CFU

CC[C@H](C)C[C@H](C)CCCCCCCCC(=O)N[C@H]1C[C@@H](O)[C@@H](NCCN)NC(=O)[C@@H]2[C@@H](O)CCN2C(=O)[C@H]([C@H](O)CCN)NC(=O)[C@H]([C@H](O)[C@@H](O)c2ccc(O)cc2)NC(=O)[C@@H]2C[C@@H](O)CN2C(=O)[C@H]([C@@H](C)O)NC1=O [Molecule A5, caspofungin]
Bactericidal action on acetic acid bacteria and the lactic acid bacteria oenooccus oeni ([1]; doses of 200 mg/liter): non-bactericidal | Bactericidal action on acetic acid bacteria and the lactic acid bacteria oenooccus oeni ([1]; doses of 400 mg/liter): non-bactericidal | Agar plate count contact time 4 h (Dekkera anomala IFBM; 400 mg/L, count at contact time 0 h 1.4.10^4 CFU/mL): No CFU | Agar plate count contact time 4 h ([2]; 200 mg/L): 1.1.10^4 CFU/mL | Agar plate count contact time 4 h ([2]; 400 mg/L): 1.10^2 CFU/mL | Agar plate count contact time 4 h [3, 13]: 9.10^1 CFU/mL | Agar plate count contact time 4 h [3, 14]: 1.10^2 CFU/mL | Agar plate count contact time 4 h ([4]; 200 mg/L): 1.10^2 CFU/mL | Agar plate count contact time 4 h ([4]; 400 mg/L): 2.10^2 CFU/mL | Agar plate count contact time 4 h [5, 15]: 6.10^9 CFU/mL | Agar plate count contact time 4 h [5, 16]: 5.10^7 CFU/mL | Agar plate count contact time 4 h ([6]; 200 mg/L): No CFU | Agar plate count contact time 4 h ([6]; 400 mg/L): No CFU | Agar plate count contact time 4 h [7, 13]: No CFU | Agar plate count contact time 4 h ([7]; 400 mg/L, count at contact time 0 h 1.7.10^4 CFU/mL): No CFU | Agar plate count contact time 4 h (Pedicoccus damnosus IFBM; [17]): No CFU | Agar plate count contact time 4 h (Pedicoccus damnosus IFBM; [18]): No CFU | Agar plate count contact time 4 h ([8]; 200 mg/L): 1.10^5 CFU/mL | Agar plate count contact time 4 h ([8]; 400 mg/L): 2.10^6 CFU/mL | Agar plate count contact time 4 h [9, 21]: No CFU | Agar plate count contact time 4 h (Sacch. Diastaticus IFBM; 400 mg/L, count at contact time 0 h 4.10^4 CFU/mL): No CFU | Agar plate count contact time 4 h (G. oxydans DSM 7145; [19]): 1.10^9 CFU/mL | Agar plate count contact time 4 h (G. oxydans DSM 7145; [20]): 9.10^7 CFU/mL | Agar plate count contact time 4 h [10, 21]: No CFU | Agar plate count contact time 4 h ([11]; count at contact time 0 h 3.10^5 CFU/mL): No CFU
